The results in this text go back to US20230085945A1, “ORTHOGONAL SAFETY SWITCHES TO ELIMINATE GENETICALLY ENGINEERED CELLS” (The Board of Trustees of the Leland Stanford Junior …, priority 2020, published 2023).

Assay [1] relates to undifferentiated NANOG^iCasp9-YFP hPSCs. The assay can be described thus: Viability of undifferentiated NANOG^iCasp9-YFP hPSCs after AP20187 (FACS, alamar blue; dose and time course). Type of assay: cell-based, human. As for the experimental part: FIG. 9: Efficacy of the NANOG^iCasp9-YFP safety switch (related to FIG. 3). A) Undifferentiated NANOG^iCasp9-YFP hPSCs were treated with AP20187 at the indicated concentrations for 24 hours, and then the percentage of viable remaining cells was subsequently analyzed using FACS analysis (left) and alamar blue staining (right). For the FACS analysis, the percentage of cells shown represents viable cells (i.e., DAPI-negative cells obtained after DAPI staining) that were then gated for YFP+ (i.e., NANOG^+) cells. For the alamar blue analysis, wild-type hPSCs were used as a negative control. […] AP20187 doses equal to or greater than 100 nM may prevent efficient killing of NANOG^iCasp9-YFP hPSCs by considerably downregulating NANOG. Gene expression is depicted normalized to the reference gene YWHAZ (i.e., YWHAZ=1.0). C) Undifferentiated NANOG^iCasp9-YFP hPSCs were treated with the indicated doses of AP20187 for various lengths of time (6, 12, 24, 48, 72 hours) and then alamar blue assay was performed immediately thereafter to quantify the extent of cell death. […] D) Immunofluorescent imaging of NANOG^iCasp9-YFP hESCs in the undifferentiated state and after differentiation into day 6 sclerotome as marked by TWIST1 expression, both without and with treatment of cells with 1 nM AP20187 for 24 hours. […] The following marker genes were assessed in each respective cell-type: sclerotome (bone) progenitors (TWIST1, SOX9, PAX1, PAX9), liver progenitors (SOX17, HNF4A, AFP, TBX3), and forebrain (neural) progenitors (PAX6, FOXG1, OTX2, SIX3). F) Further validation of NANOG^iCasp9-YFP using a simulated mixed cell culture assay. NANOG^iCasp9-YFP undifferentiated hPSCs and hPSC-derived derived sclerotome cells were mixed at a 3:7 ratio, respectively. Mixed cells were treated with AP20187, and 24 hours post-treatment, FACS analysis was done to assess remaining NANOG^iCasp9-YFP hPSCs in culture.
Alamar Blue proliferation assay—hESCs were cultured in mTeSR1 (in the presence or absence of AP20187 at the indicated concentrations). After 24 hours of AP20187 treatment, mTeSR1 media with Alamar Blue (concentration based on manufacturer's protocol) was changed for both untreated and treated samples. A control well containing media+Alamar Blue was used to assess blank wells and to therefore to measure and subtract fluorescence noise.
Flow cytometric quantification of viable cells—NANOG^iCasp9-YFP hESCs were dissociated into single cells with Accutase and 1×10^6 cells were plated per well in a 6-well plate pre-coated with Matrigel. […] Subsequently, to quantify the percentage of surviving cells, the cultures were dissociated with TrypLE Express. […] YFP^+ (i.e., NANOG^+) cells were analyzed (Beckman Coulter CytoFlex Analyzer) to count live cells for both untreated and AP20187-treated groups. […]
A general note: The colour change of resazurin is a common sign of viable cells or microbes.

Assay [2] relates to NANOG^iCasp9-YFP;ACTB^HSV-TK-mPlum hPSCs transplanted subcutaneously. The assay is described as follows: Teratoma formation after AP20 pre-treatment of dual-safeguard hPSCs. As to conditions: pre-treatment with 1 nM AP20 before transplantation. The assay is classed as in vivo, NOD-SCID Il2rg^−/− mice. As for the experimental part: FIG. 5: Implementation of the ACTB^TK-mPlum safety switch. A) NANOG^iCasp9-YFP;ACTB^TK-mPlum hESCs were treated with ganciclovir (or left untreated) for 24 hours, and subsequently ganciclovir was withdrawn and hESCs were cultured for 1 week in mTeSR1 to detect any surviving cells and to allow them to regrow. […] N.D.=not detected. B) NANOG^iCasp9-YFP;ACTB^TK-mPlum hESCs were differentiated into day 6 liver, sclerotome and neural progenitors and treated with ganciclovir at the indicated doses for the last 24 hours of differentiation. Cell survival was analyzed by counting at day 6 of differentiation. C) 10^6 NANOG^iCasp9-YFP; ACTB^TK-mPlum hESCs engineered to express CAG-AkaLuciferase were treated with control media or 1 nM AP20187 for 24 hours, and then subcutaneously transplanted into the right and left dorsal flanks of NOD-SCID Il2rg^−/− mice (10^6 cells per flank). […] Total flux (photons/sec) was measured for each animal and were averaged.
In vivo teratoma formation. […] Teratoma growth was monitored throughout the duration of the experiment via visual inspection and bioluminescent imaging.
Bioluminescent imaging. […] Subsequent image analysis was done in Aura with regions of interest (ROIs) drawn for each mouse to calculate Total Flux (photons/sec) in order to quantify teratoma growth over time.

SMILES strings stand for the structures. Bounds are passed on as bounds.

Broadly, the IC50 is the concentration at which inhibition is half-maximal. A high value points to lower potency. For `CC[C@H](C(=O)N1CCCC[C@H]1C(=O)O[C@H](CCc1ccc(OC)c(OC)c1)c1cccc(OCC(=O)NCC(CNC(=O)COc2cccc([C@@H](CCc3ccc(OC)c(OC)c3)OC(=O)[C@@H]3CCCCN3C(=O)[C@@H](CC)c3cc(OC)c(OC)c(OC)c3)c2)CN(C)C)c1)c1cc(OC)c(OC)c(OC)c1` [AP20], in assay [1], the “concentration that activates the NANOG^iCasp9-YFP system” value turned out to be 1 nM and the “duration of treatment that sufficed to eliminate hESCs” value is 12 h. Also, the “time to activity / cell death” value in assay [1] (1 nM AP20187) is no more than 12 h. This molecule showed an IC50 in assay [1] (undifferentiated NANOG^iCasp9-YFP hPSCs) of 0.065 nM. The “teratoma formation in vivo” value in assay [2] is reported as “prevented them from forming teratomas in vivo”.
